Measurements: patent US20250109127A1, “METHODS OF USE OF PHENOXYPROPYLAMINE COMPOUNDS TO TREAT DEPRESSION” (Minerva Neurosciences, Inc., priority 2013, published 2025)
“And” between values parts separate entries of the source, which are not always exact repeats. Equal entries are not always repeated. Structures can show the parent of a compound that is named as a salt.

Tested on: norepinephrin release in the rat prefrontal cortex
Assay: Microdialysis: norepinephrine release in prefrontal cortex after I.P. administration
Format: in vivo
Conditions: for Norepinephrin release, MEAN / Norepinephrin release, individual animals: 3 mg/kg IP; for Norepinephrin release, MEAN: n = 8; for Norepinephrin release, individual animals: per animal R#15,16,21,22,27,28,09,10; for Norepinephrin release, individual animals / NOREPINEPHRIN in dialysate, individual animals: hydrochloride; for NOREPINEPHRIN in dialysate, individual animals: 0.1 mg/kg
Procedure: The aim of the study was to evaluate, using microdialysis, the effects of an intraperitoneal (I.P.) administration in rats of three different doses of SON-117 on dopamine and its metabolites, serotonin and its metabolite (5-HIAA), and norepinephrine levels in prefrontal cortex.
Thirty-two adult male Wistar rats were used for the whole study (4 groups of eight animals planned for the study, Table 1).
Surgery was performed on rats weighing about 300 g at the beginning of the experiments. Rats were anaesthetized with Ketamine (50 mg/kg) & Xylazine (15 mg/kg) by intramuscular administration. The animals were placed in a stereotaxic apparatus in the flat-skull position at a constant setting of −3.3 mm between ear bars and the incisor bar. The animals were treated with a local anesthesic (xylocaine 1%, Astra Zeneca) and an analgesic (Temgesic, from Schering Plough, 0.05 mg/kg, s.c.). A rostrocaudal midline incision was made with a lancet to expose the dorsal skull surface. The “stereotaxic zero” was defined by the Bregma in accordance with Paxinos and Watson's atlas (1986). A hole was drilled in the skull with a drill and the meninges were pierced with a sterile needle to implant a CMA12 guide cannula which later received the dialysis probe.
Coordinates used for implanting guide cannula in prefrontal cortex from Bregma were anteroposterior 3.7 mm, mediolateral 0.8 mm, and dorsoventral −2 mm (top of the probe was at −5 mm). The guide cannula was fixed to the skull with two stainless steel screws (1.88 mm outside diameter) anchored. An application of dental cement was added. A plastic collar allowed each animal to be tethered to a Swivel assembly of the CMA 120 awake animal system. Following surgery, rats were kept in individual cages and allowed to recover for a minimum of 3-5 days before the experimentation. The rats were handled and put in plastic bowl for 10 min at least every day to habituate the animals to their new environment for the dialysis. An I.P. administration with saline was also performed every day.
Dialysis probes (CMA12/3 mm, membrane, 20 kD cut-off, Carnegie Medicine, Stockholm, Sweden), were carefully washed before inserting into the guide cannula. The wash was performed with the artificial cerebrospinal fluid (aCSF) medium (NaCl 147 mM, KCl 2.7 mM, CaCl2 1.2 mM, MgCl2 0.85 mM) at room temperature. The dialysis system was then equilibrated at 20° C. at a perfusion rate of 1 μl/min with a Carnegie pump (CMA100). All catheters (FEP tubing, internal volume of 1.2 μl/10 cm, and tubing adaptors) used for microdialysis were treated in the same conditions.
The probes duly prepared were inserted into the guide cannula and the CMA120 Swivel assembly secured to the animal using a plastic collar. Flow through the dialysis probe with aCSF was maintained at a rate of 1 μl/min during the whole experimentation. The first four fractions (corresponding to 2 hours) were discarded to avoid the effects of parenchymal disturbance and to ensure that an approximate steady-state level was reached. Fractions were then collected over a period of 8.5 h during which time the animals remained quiet. The dialysates were automatically collected with an autosampler (microfraction collector CMA 140, Carnegie Medicin) and stored at −80° C. until analysis. […] Perfusion was then maintained for 7 hours with aCSF. The dialysates (30 μl) were collected into 300 μl vials, transferred into dry ice and then kept frozen (−80° C.) until analysis. Frozen samples were shipped to a partner for analysis. At the end of the microdialysis study, a PBS with colored ink was perfused through the probe in order to visualize the dialyzed area.
Catecholamine assay: Concentrations of dopamine, DOPAC, HVA, 5-HIAA, 5-HT, and norepinephrin were determined for each sample by HPLC coupled with electrochemical detection. […]

[1] = SON-117 0.1 mg/kg I.P., T0-T30 min
[2] = SON-117 0.1 mg/kg I.P., T30-T1 h

Compound: Cc1nnc(-c2cc3c(OC[C@@H](O)CN4CCC(c5ccc(Cl)c(Cl)c5)CC4)cccc3o2)o1 [SON-117, (S)-1-(4-(3,4-dichlorophenyl)piperidino)-3-(2-(5-methyl-1,3,4-oxadiazol-2-yl)benzo(b)furan-4-yloxy)-2-propanol hydrochloride]
- Norepinephrin release, MEAN (T3 h 30-T4 h): 96.91 % of respective basal
- Norepinephrin release, individual animals (T3 h 30-T4 h): 92.25 % of respective basal and 96.09 % of respective basal and 81.54 % of respective basal and 98.50 % of respective basal and 84.78 % of respective basal and 103.12 % of respective basal and 98.12 % of respective basal and 120.87 % of respective basal
- Norepinephrin release, MEAN (T3 h-T3 h 30): 98.58 % of respective basal
- Norepinephrin release, individual animals (T3 h-T3 h 30): 105.14 % of respective basal and 113.23 % of respective basal and 79.41 % of respective basal and 94.38 % of respective basal and 76.17 % of respective basal and 100.68 % of respective basal and 93.69 % of respective basal and 125.93 % of respective basal
- Norepinephrin release, MEAN (T4 h 30-T5 h): 97.28 % of respective basal
- Norepinephrin release, individual animals (T4 h 30-T5 h): 58.60 % of respective basal and 125.43 % of respective basal and 101.68 % of respective basal and 87.38 % of respective basal and 80.27 % of respective basal and 104.69 % of respective basal and 112.63 % of respective basal and 107.59 % of respective basal
- Norepinephrin release, MEAN (T4 h-T4 h 30): 95.48 % of respective basal
- Norepinephrin release, individual animals (T4 h-T4 h 30): 62.13 % of respective basal and 91.42 % of respective basal and 88.64 % of respective basal and 99.58 % of respective basal and 82.26 % of respective basal and 99.52 % of respective basal and 111.02 % of respective basal and 129.30 % of respective basal
- Norepinephrin release, MEAN (T5 h 30-T6 h): 96.42 % of respective basal
- Norepinephrin release, individual animals (T5 h 30-T6 h): 82.50 % of respective basal and 100.18 % of respective basal and 65.95 % of respective basal and 85.98 % of respective basal and 75.91 % of respective basal and 86.97 % of respective basal and 139.22 % of respective basal and 134.66 % of respective basal
- Norepinephrin release, MEAN (T5 h-T5 h 30): 90.72 % of respective basal
- Norepinephrin release, individual animals (T5 h-T5 h 30): 87.73 % of respective basal and 105.81 % of respective basal and 60.65 % of respective basal and 89.96 % of respective basal and 73.79 % of respective basal and 96.43 % of respective basal and 137.91 % of respective basal and 93.51 % of respective basal
- Norepinephrin release, MEAN (T6 h 30-T7 h): 97.32 % of respective basal
- Norepinephrin release, individual animals (T6 h 30-T7 h): 66.13 % of respective basal and 133.14 % of respective basal and 93.99 % of respective basal and 95.87 % of respective basal and 77.85 % of respective basal
- Norepinephrin release, MEAN (T6 h-T6 h 30): 98.56 % of respective basal
- Norepinephrin release, individual animals (T6 h-T6 h 30): 78.64 % of respective basal and 120.89 % of respective basal and 90.25 % of respective basal and 94.88 % of respective basal and 80.09 % of respective basal and 93.58 % of respective basal and 131.29 % of respective basal
- Norepinephrin release, MEAN (T-30 min-T0 (before administration)): 97.42 % of respective basal
- Norepinephrin release, MEAN (T-1 h 30-T-1 h (before administration)): 102.02 % of respective basal
- Norepinephrin release, MEAN (T-1 h-T-30 min (before administration)): 100.56 % of respective basal
- NE post injection levels vs mean pre-injection value (SON-117 0.1 mg/kg I.P.): no statistically significant differences
- NOREPINEPHRIN in dialysate, MEAN [1]: 82.85 % of respective basal
- NOREPINEPHRIN in dialysate, individual animals [1]: 92.79 % of respective basal and 99.624 % of respective basal and 74.34 % of respective basal and 64.40 % of respective basal and 84.29 % of respective basal and 81.69 % of respective basal
- NOREPINEPHRIN in dialysate, MEAN [2]: 95.58 % of respective basal
- NOREPINEPHRIN in dialysate, individual animals [2]: 105.21 % of respective basal and 96.78 % of respective basal and 87.94 % of respective basal and 101.10 % of respective basal and 90.37 % of respective basal and 88.40 % of respective basal and 114.24 % of respective basal and 80.61 % of respective basal
- NOREPINEPHRIN in dialysate, MEAN (SON-117 0.1 mg/kg I.P., T1 h 30-T2 h): 81.28 % of respective basal
